In patent US20240034743A9, “TRICYCLIC COMPOUNDS AS EGFR INHIBITORS” (QILU PHARMACEUTICAL CO., LTD., priority 2020, published 2024):
Read-outs that look alike come from different tables or passages of the source.

How the values were obtained:
[1] = system: Ba/F3_Del19/T790M/C797S cells; test: Ba/F3_Del19/T790M/C797S cell proliferation inhibition assay (CellTiter-Glo); format: cell-based; details: Mus musculus
Procedure, shortened: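 IC50 for growth inhibition came from CellTiter-Glo chemiluminescence after a 72 h, 37° C compound exposure. Ba/F3_Del19/T790M/C797S cells were plated at 700/well, and compound was dosed in gradient with 0.1% final DMSO.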

[2] = system: Ba/F3_L858R/T790M/C797S cells; test: Ba/F3_L858R/T790M/C797S cell proliferation inhibition assay (CellTiter-Glo); format: cell-based; details: Mus musculus
Procedure, shortened: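 Proliferation IC50 derived from CellTiter-Glo luminescence in Ba/F3 cells expressing triple-mutant EGFR (L858R/T790M/C797S). Cells (700/well) incubated 72 h with graded compound doses at 0.1% DMSO final, 37 °C, 5% CO2; reagent developed 30 min at room temperature in the dark.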

EGFR L858R/T790M/C797S = EGFR L858R/T790M/C797S (Homo sapiens (Human), UniProt P00533, C797S/L858R/T790M); test: In vitro enzymatic TR-FRET (HTRF KinEASE-TK) kinase assay, EGFR L858R/T790M/C797S; format: biochemical; details: kinase activity
Chain of EGFR L858R/T790M/C797S (P00533 25-1210 T790M/C797S/L858R): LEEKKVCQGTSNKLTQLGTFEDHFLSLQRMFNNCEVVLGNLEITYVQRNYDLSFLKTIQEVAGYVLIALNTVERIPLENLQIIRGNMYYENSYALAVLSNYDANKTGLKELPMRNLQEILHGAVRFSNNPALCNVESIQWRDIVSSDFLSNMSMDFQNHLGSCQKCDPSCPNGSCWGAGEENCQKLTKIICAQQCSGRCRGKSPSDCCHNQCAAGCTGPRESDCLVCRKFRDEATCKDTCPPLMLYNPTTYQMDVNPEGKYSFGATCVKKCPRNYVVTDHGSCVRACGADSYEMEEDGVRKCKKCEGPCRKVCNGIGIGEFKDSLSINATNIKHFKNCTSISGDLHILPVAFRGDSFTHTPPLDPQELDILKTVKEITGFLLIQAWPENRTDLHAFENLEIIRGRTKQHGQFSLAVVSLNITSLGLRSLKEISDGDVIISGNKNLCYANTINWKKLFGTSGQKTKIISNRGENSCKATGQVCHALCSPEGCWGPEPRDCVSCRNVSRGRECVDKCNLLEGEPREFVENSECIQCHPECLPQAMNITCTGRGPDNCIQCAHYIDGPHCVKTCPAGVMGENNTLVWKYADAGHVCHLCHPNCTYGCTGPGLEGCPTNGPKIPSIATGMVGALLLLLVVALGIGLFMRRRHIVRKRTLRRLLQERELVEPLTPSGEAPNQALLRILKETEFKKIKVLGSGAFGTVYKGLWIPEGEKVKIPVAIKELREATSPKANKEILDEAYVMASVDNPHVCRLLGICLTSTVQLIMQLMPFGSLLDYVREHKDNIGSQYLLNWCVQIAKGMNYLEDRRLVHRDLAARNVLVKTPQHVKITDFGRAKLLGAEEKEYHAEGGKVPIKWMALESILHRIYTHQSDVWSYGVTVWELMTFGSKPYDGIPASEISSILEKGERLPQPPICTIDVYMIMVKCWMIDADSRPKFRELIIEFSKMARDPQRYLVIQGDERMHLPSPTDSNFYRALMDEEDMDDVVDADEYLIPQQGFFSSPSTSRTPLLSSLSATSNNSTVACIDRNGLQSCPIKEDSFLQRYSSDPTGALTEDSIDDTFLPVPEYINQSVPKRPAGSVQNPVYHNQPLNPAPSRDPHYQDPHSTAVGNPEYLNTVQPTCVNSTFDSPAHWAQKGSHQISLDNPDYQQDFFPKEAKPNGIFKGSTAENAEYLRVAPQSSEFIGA
Protocol: (I) In Vitro Enzymatic Experiment for EGFR WT and EGFR L858R/T790M/C797S
In the assay, the inhibition effect of the compound on the kinase activity of EGFR WT (wild type EGFR) and EGFR L858R/T790M/C797S was tested by adopting a time-resolved fluorescence resonance energy transfer (TR-FRET) method, and half maximal inhibitory concentration IC50 of the compound on the kinase activity of EGFR was obtained.
EGFR recombinase and EGFR L858R/T790M/C797S recombinase, purchased from Signalchem.
HTRF KinEASE-TK kit, purchased from Cisbio.
DTT, MnCl2, and MgCl2, purchased from Sigma.
ATP, purchased from Promega.
Brigatinib, purchased from Selleck.
1) 1× working solution was prepared: 5 mM MgCl2; 1 mM DTT; 1 mM MnCl2 and 1× kinase buffer (in kit).
2) […] of gradiently-diluted compound was transferred to a 384-well plate using Echo 550 (Labcyte).
3) 5 μL of 2× EGFR WT or EGFR L858R/T790M/C797S recombinase solution was added to the 384-well plate, and the plate was incubated at room temperature for 10 min.
4) 5 μL of 2× TK-substrate-biotin substrate solution (containing ATP) was added to the 384-well plate, and the plate was incubated at room temperature for 40 min.
5) 5 μL of assay solution containing Sa-XL 665 HTRF and 5 μL of TK-antibody-Cryptatewas were added to the plate, and the plate was incubated at room temperature for 1 h.
6) The fluorescence signal values at 615 nm and 665 nm were measured for each well using an Envision microplate reader (PerkinElmer).
7) The ratio of fluorescence signal values at 665 nm and 615 nm was calculated for each well.
8) Data analysis was performed using GraphPad Prism software to give the IC50 for compounds.

EGFR WT (wild type EGFR) = EGFR WT (wild type EGFR) (Homo sapiens (Human), UniProt P00533); test: In vitro enzymatic TR-FRET (HTRF KinEASE-TK) kinase assay, EGFR WT; format: biochemical; details: kinase activity, TR-FRET; read-out: EGFR (WT) IC50
Chain of EGFR WT (wild type EGFR) (P00533 25-1210): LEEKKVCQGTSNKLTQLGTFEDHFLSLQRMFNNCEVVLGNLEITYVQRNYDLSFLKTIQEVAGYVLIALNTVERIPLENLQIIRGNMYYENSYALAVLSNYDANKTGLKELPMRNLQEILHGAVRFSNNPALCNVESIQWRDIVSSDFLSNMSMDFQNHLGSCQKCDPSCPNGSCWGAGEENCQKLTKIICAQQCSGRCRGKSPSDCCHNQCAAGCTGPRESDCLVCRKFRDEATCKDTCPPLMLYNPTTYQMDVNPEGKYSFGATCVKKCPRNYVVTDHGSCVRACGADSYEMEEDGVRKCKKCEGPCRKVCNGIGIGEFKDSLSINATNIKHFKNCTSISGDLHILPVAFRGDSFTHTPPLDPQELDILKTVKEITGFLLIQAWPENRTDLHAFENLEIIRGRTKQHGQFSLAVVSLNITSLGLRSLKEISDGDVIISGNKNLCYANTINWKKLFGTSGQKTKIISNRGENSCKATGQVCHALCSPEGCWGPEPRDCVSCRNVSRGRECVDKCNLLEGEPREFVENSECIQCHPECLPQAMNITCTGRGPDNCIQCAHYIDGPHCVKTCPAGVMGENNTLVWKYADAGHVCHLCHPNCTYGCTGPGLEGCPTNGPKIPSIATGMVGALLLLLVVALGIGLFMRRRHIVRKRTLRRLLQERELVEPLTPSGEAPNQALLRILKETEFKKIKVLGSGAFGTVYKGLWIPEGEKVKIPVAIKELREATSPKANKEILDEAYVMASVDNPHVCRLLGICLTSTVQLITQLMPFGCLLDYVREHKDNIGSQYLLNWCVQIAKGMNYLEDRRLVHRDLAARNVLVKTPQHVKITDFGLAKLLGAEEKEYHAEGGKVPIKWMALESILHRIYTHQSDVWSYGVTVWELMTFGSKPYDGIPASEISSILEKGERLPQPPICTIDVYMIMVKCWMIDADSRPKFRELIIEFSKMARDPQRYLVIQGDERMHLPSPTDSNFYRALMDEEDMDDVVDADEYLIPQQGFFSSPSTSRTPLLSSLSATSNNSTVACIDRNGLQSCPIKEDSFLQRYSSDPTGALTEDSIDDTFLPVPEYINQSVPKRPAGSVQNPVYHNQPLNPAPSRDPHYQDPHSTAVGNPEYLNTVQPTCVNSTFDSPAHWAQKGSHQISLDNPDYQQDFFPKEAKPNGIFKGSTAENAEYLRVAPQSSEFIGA
Procedure, shortened: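 IC50 derived from the 665/615 nm TR-FRET ratio after 1 h with streptavidin-XL665 and Cryptate-labelled TK antibody. Kinase reaction ran 40 min at room temperature with biotin-TK substrate and ATP, following 10 min compound–enzyme preincubation. Buffer: 5 mM MgCl2, 1 mM MnCl2, 1 mM DTT.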

A431 cells (EGFR WT) = test: A431 cell proliferation inhibition assay (CellTiter-Glo); format: cell-based; details: Homo sapiens
Procedure, shortened: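 CellTiter-Glo luminescence quantified growth after 72 h treatment with serially diluted compounds (final DMSO 0.1%), following a 24 h attachment period at 37° C, 5% CO2. Signal read after 30 min dark incubation at room temperature, with half-maximal growth inhibition reported as IC50.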

[3] = BaF3, cell proliferation, 72 h, CellTiter-Glo, read-out: Ba/F3 (Del19/T790M/C797S) IC50
[4] = BaF3, cell proliferation, 72 h, CellTiter-Glo, read-out: Ba/F3 (L858R/T790M/C797S) IC50
[5] = A-431, cell proliferation, 72 h, CellTiter-Glo, read-out: A431 EGFR WT IC50

SMILES | IC50 [1, 3] [nM] | IC50 [2, 4] [nM] | IC50 (EGFR L858R/T790M/C797S) [nM] | IC50 (EGFR WT (wild type EGFR)) [nM] | IC50 (A431 cells (EGFR WT); [5]) [nM] | IC50 ([1]; BaF3, 72 h, read-out: Ba/F3 (Del19/T790M/C797S) IC50(nM)) [nM] | IC50 ([2]; BaF3, 72 h, read-out: Ba/F3 (L858R/T790M/C797S) IC50(nM)) [nM] | IC50 (A431 cells (EGFR WT); A-431, 72 h, read-out: A431 EGFR WT IC50(nM)) [nM]
COc1cc2c(cc1Nc1ncc(C)c(Nc3ccccc3P(C)(C)=O)n1)-c1cnn(C)c1CCN2C#N [Compound 23] | 10 to 50 | 50 to 100 | 1 to 10 | 10 to 50 | 100 to 1000 |  |  | 
COc1cc2c(cc1Nc1ncc(C)c(Nc3ccc4nccnc4c3NS(C)(=O)=O)n1)-c1cnn(C)c1CCN2C(C)C [Compound 104] | < 10 | < 10 |  | 1 to 10 | 100 to 1000 |  |  | 
COc1cc2c(cc1Nc1ncc(Br)c(Nc3ccc(F)cc3P(C)(C)=O)n1)-c1cnn(C)c1CCN2C [Compound 43] | < 10 | < 10 |  | 1 to 10 | 50 to 100 |  |  | 
COc1cc2c(cc1Nc1ncc(Br)c(Nc3ccc4nccnc4c3NS(C)(=O)=O)n1)-c1cn(C)nc1CCN2C(C)C [Compound 112] | < 10 | 10 to 50 |  | 1 to 10 | 100 to 1000 |  |  | 
COc1cc2c(cc1Nc1ncc(Br)c(Nc3ccccc3P(C)(C)=O)n1)-c1cn[nH]c1CCN2C [Compound 37] | < 10 | 10 to 50 |  | 1 to 10 | 100 to 1000 |  |  | 
COc1cc2c(cc1Nc1ncc(Br)c(Nc3ccc4nccnc4c3C(=O)N(C)C)n1)-c1cnn(C)c1CCN2C(C)C [Compound 109] |  |  |  | 1 to 10 |  | 10 to 50 | 10 to 50 | 100 to 1000
COc1cc2c(cc1Nc1ncc(Br)c(Nc3ccccc3P(C)(C)=O)n1)-c1cnn(C)c1CCN2C1CCN(C)CC1 [Compound 47] | < 10 | 10 to 50 |  | 1 to 10 | 50 to 100 |  |  | 
COc1cc2c(cc1Nc1ncc(Br)c(Nc3ccccc3N(C)S(=O)(=O)C3CC3)n1)-c1cnn(C)c1CCN2C [Compound 3] | < 10 | < 10 |  | 1 to 10 | 100 to 1000 |  |  | 
COc1cc2c(cc1Nc1nc(Nc3ccc4nccnc4c3P(C)(C)=O)c3sccc3n1)-c1cnn(C)c1CCN2C [Compound 61] | < 10 | < 10 |  | 1 to 10 | 10 to 50 |  |  | 
COc1cc2c(cc1Nc1ncc(Br)c(Nc3ccccc3P(C)(C)=O)n1)-c1cnn(C)c1CCN2C1CCN(C)CC1F (stereo not shown) [Compound 65] | < 10 | 10 to 50 |  | 1 to 10 | 100 to 1000 |  |  | 
COc1cc2c(cc1Nc1ncc(Br)c(Nc3ccncc3P(C)(C)=O)n1)-c1cnn(C)c1CCN2C(C)C [Compound 97] | < 10 | 10 to 50 |  | 1 to 10 | 100 to 1000 |  |  | 
COc1cc2c(cc1Nc1ncc(Br)c(Nc3ccccc3P(C)(C)=O)n1)-c1cnn(C)c1CCN2CCN1CCC(F)CC1 [Compound 41] | < 10 | < 10 |  | 1 to 10 | 100 to 1000 |  |  | 
COc1cc2c(cc1Nc1ncc(Br)c(Nc3ccc(F)cc3NS(C)(=O)=O)n1)-c1cnn(C)c1CCN2C(C)C [Compound 128] | < 10 | < 10 |  | 1 to 10 | > 1000 |  |  | 
COc1cc2c(cc1Nc1ncc(Br)c(Nc3ccccc3P(C)(C)=O)n1)-c1cnn(C3CCN(C)CC3)c1CCN2C(C)C [Compound 75] | 10 to 50 | 50 to 100 |  | 1 to 10 | 100 to 1000 |  |  | 
CCc1cnc(Nc2cc3c(cc2OC)N(C)CCc2c-3cnn2C)nc1Nc1ccccc1P(C)(C)=O [Compound 25] | < 10 | 10 to 50 |  | 1 to 10 | 100 to 1000 |  |  | 
